Each structure is given as a SMILES string.

One data set has as its target T1, arylsulfatase A (ASA) (Homo sapiens, UniProt P15289).
T1 sequence (P15289 19-507): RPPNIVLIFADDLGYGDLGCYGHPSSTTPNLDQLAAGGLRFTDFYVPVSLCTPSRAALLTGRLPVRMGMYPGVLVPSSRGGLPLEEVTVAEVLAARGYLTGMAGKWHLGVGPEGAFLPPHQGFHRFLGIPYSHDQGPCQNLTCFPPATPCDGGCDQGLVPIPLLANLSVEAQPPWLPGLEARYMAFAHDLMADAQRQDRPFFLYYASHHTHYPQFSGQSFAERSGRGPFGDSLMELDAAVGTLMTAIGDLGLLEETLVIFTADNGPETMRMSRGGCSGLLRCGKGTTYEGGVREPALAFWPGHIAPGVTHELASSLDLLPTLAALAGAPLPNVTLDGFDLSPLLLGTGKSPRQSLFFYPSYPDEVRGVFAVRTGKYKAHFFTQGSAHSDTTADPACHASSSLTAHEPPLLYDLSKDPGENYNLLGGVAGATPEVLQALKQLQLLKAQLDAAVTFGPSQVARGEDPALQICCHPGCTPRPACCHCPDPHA
The following applies: at a set time-point; cited from earlier work.

The nature of data set [1]: Blue-light photo-degradation of A2E. The conditions noted are these: bound to SapB (2 sapB:1 A2E) versus free; 30 min, pH 5.5. The format is physicochemical. From the text: We screened A2E photostability to blue light, whether in its free form or complexed to SapB (2 sapB:1 A2E) (see supplementary materials for details) with and without 1% DMSO (a known facilitator of blue induced photobleaching). […] The fact that SapB might play a role in mitigating photo-bleaching and providing a source of subsequent fluorescence is an interesting possibility, particularly in light of recent studies by Yamamoto et al. showing that SapB could regulate CoQ10 movement/levels within HepG2 cells.
In order to further examine the protective effects of sapB towards A2E in terms of photooxidation, additional ultraviolet spectroscopy was performed on a Varian Cary 50B Spectrophotomer. The stock solutions were prepared as follows: SapB in 50 mM phosphate buffer, pH 5.5 and A2E in 100% methanol or 100% DMSO. The samples were exposed to blue light in five-minute increments and monitored after each exposure for a total of 30 min. The data was further analyzed with OriginLab software version 8. The final product was examined via mass spectroscopy to identify products as a result of blue light exposure. Evidence for photooxidized species are clearly indicated.

The next data set has as its target T2, HRP (Armoracia rusticana, UniProt P00433).
T2 sequence (P00433 31-338): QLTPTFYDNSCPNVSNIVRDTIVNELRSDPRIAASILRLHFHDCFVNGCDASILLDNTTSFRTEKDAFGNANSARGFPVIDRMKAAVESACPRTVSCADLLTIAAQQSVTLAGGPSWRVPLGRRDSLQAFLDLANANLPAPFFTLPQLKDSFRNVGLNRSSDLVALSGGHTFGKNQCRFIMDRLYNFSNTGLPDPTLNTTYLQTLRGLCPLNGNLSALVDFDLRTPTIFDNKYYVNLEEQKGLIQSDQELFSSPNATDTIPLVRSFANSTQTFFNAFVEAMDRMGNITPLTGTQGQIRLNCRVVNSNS
Nature of the data set: Formation of verdoheme (P-670) from HRP Compound III, absorbance at 670 nm. The format is biochemical. The following applies: 12 μM A2E, alone or pre-complexed with SapB; 10 μM HRP, 100 μM H2O2. On the procedure: Here, and in light of the kinetic results of FIG. 4, we followed the absorbance change at 670 nm to test the hypothesis of whether A2E may be a suitable substrate for the HRP/H2O2 system.
The experiments were then repeated in the presence of A2E and SapB to examine their effect on P-670 formation.
Conventional ultraviolet visible spectroscopy was performed on a Varian Cary 50 Bio spectrophotometer from Agilent Technologies. The stock solutions of various reagents were prepared as follow: HRP in DI water, A2E in DMSO, SapB in 50 mM phosphate buffer, pH 5.5, CoQ10 in THF (tetrahydrofurane) and 3% H2O2 solution diluted in DI water from an initial stock at 30%. The 340 nm kinetic experiments were monitored every 5 minutes for a total of 400 min following the sequential addition of all reagents as indicated in FIG. 4. The HRP solution of FIG. 5 was prepared in 20 mM phosphate buffer, 1% tween, pH 5.5, 25° C. All concentrations given in the figure caption are final concentrations following mixing of the reagents. The spectrophotometric data were further analyzed with OriginLab software version 8.

Turning to `CC(C=CC1=C(C)CCCC1(C)C)=CC=CC(C)=Cc1cc(C=CC=C(C)C=CC2=C(C)CCCC2(C)C)cc[n+]1CCO` [A2E, N-retinylidene-N-retinylethanolamine], the “interference with ASA specific activity” value on arylsulfatase A (ASA) is “does not interfere”. Besides, the “A2E degradation over time under blue light (decline in slopes)” value in data set [1] was “significantly reduced”. In addition, on HRP, the “amount of verdoheme (P-670) formation” value is “significant reduction”.

The values above are taken from US10813981B2, “Saposin B binds the lipofuscin bisretinoid A2E and prevents its enzymatic and photo degradation” (Syracuse University, priority 2017, dated 2020).
